Values joined by “and” are separate entries in the source; they are usually repeats but may differ in a detail not shown here. Equal values may be shown once. Inconclusive results and toxic doses are left out. No stated cut-off is given here; in the data, active means T/C of 150% or more; inactive means T/C below 125%.
Test system: L1210 leukemia ip in BDF1 mice, survival T/C
Assay: NCI In Vivo Anticancer Drug Screen. Data for tumor model L1210 Leukemia (intraperitoneal) in B6D2F1 (BDF1) mice
Conditions: endpoint: mean survival time, higher = longer survival
Summary of the method: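 Tumor cells were implanted, animals were treated, and survival was followed. The result divides the treated measurement by the vehicle-control measurement.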

[1] = dose: 100.0 mg/kg/injection, schedule: Q01DX001 (ip), vehicle: saline
[2] = dose: 200.0 mg/kg/injection, schedule: Q01DX001 (ip), vehicle: saline
[3] = dose: 400.0 mg/kg/injection, schedule: Q01DX001 (ip), vehicle: saline
[4] = dose: 100.0 mg/kg/injection, schedule: Q04DX003 (ip), vehicle: Klucel (hydroxypropylcellulose) (HPC)
[5] = dose: 200.0 mg/kg/injection, schedule: Q04DX003 (ip), vehicle: Klucel (hydroxypropylcellulose) (HPC)
[6] = dose: 400.0 mg/kg/injection, schedule: Q04DX003 (ip), vehicle: Klucel (hydroxypropylcellulose) (HPC)
[7] = dose: 75.0 mg/kg/injection, schedule: Q01DX001 (ip), vehicle: saline
[8] = dose: 100.0 mg/kg/injection, schedule: Q01DX001 (ip), vehicle: carboxymethylcellulose (CMC)
[9] = dose: 200.0 mg/kg/injection, schedule: Q01DX001 (ip), vehicle: carboxymethylcellulose (CMC)
[10] = dose: 400.0 mg/kg/injection, schedule: Q01DX001 (ip), vehicle: carboxymethylcellulose (CMC)
[11] = dose: 100.0 mg/kg/injection, schedule: Q04DX002 (ip), vehicle: Klucel (hydroxypropylcellulose) (HPC)
[12] = dose: 200.0 mg/kg/injection, schedule: Q04DX002 (ip), vehicle: Klucel (hydroxypropylcellulose) (HPC)
[13] = dose: 400.0 mg/kg/injection, schedule: Q04DX002 (ip), vehicle: Klucel (hydroxypropylcellulose) (HPC)
[14] = dose: 100.0 mg/kg/injection, schedule: Q04DX002 (ip), vehicle: saline
[15] = dose: 200.0 mg/kg/injection, schedule: Q04DX002 (ip), vehicle: saline
[16] = dose: 50.0 mg/kg/injection, schedule: Q01DX001 (ip), vehicle: carboxymethylcellulose (CMC)

Measured: T/C

O=P1(c2ccccc2)OCCO1
inactive: dose: 25.0 mg/kg/injection, schedule: Q01DX009 (ip), vehicle: carboxymethylcellulose (CMC) 97 % of control and 98 % of control | dose: 50.0 mg/kg/injection, schedule: Q01DX009 (ip), vehicle: carboxymethylcellulose (CMC) 100 % of control and 101 % of control | dose: 100.0 mg/kg/injection, schedule: Q01DX009 (ip), vehicle: carboxymethylcellulose (CMC) 94 % of control and 100 % of control and 101 % of control | dose: 100.0 mg/kg/injection, schedule: Q04DX002 (ip), vehicle: carboxymethylcellulose (CMC) 93 % of control and 102 % of control | dose: 100.0 mg/kg/injection, schedule: Q04DX003 (ip), vehicle: carboxymethylcellulose (CMC) 103 % of control | dose: 200.0 mg/kg/injection, schedule: Q04DX002 (ip), vehicle: carboxymethylcellulose (CMC) 96 % of control | dose: 200.0 mg/kg/injection, schedule: Q04DX003 (ip), vehicle: carboxymethylcellulose (CMC) 107 % of control | dose: 400.0 mg/kg/injection, schedule: Q04DX002 (ip), vehicle: carboxymethylcellulose (CMC) 96 % of control | dose: 400.0 mg/kg/injection, schedule: Q04DX003 (ip), vehicle: carboxymethylcellulose (CMC) 97 % of control

COC(=O)c1ccccc1NCCO
inactive: [1] 101 % of control | [2] 107 % of control | [3] 101 % of control

CCOC(=O)c1cnc(=O)[nH]c1Nc1ccccc1Cl
inactive: [4] 94 % of control | [5] 101 % of control | [6] 90 % of control

Clc1ccc(-c2nnc3c4ccccc4ccn23)cc1
inactive: [1] 104 % of control | [2] 93 % of control | [3] 98 % of control

O=C(O)c1cc(S(=O)(=O)Cl)cc(S(=O)(=O)Cl)c1
inactive: [7] 107 % of control

O=C(OC1COC(Br)C(OC(=O)c2ccc([N+](=O)[O-])cc2)C1OC(=O)c1ccc([N+](=O)[O-])cc1)c1ccc([N+](=O)[O-])cc1 (configuration not stated)
inactive: [1] 98 % of control | [2] 96 % of control | [3] 91 % of control

O=C1c2ccccc2C(=O)c2c1ccc1nc(Cl)c(=O)[nH]c21
inactive: [8] 93 % of control | [9] 95 % of control | [10] 100 % of control

O=C(Cc1ccccc1S(=O)(=O)Nc1ccccc1)c1ccccc1
inactive: dose: 100.0 mg/kg/injection, schedule: Q01DX001 (ip), vehicle: steriod suspending solution 96 % of control | dose: 200.0 mg/kg/injection, schedule: Q01DX001 (ip), vehicle: steriod suspending solution 86 % of control | dose: 400.0 mg/kg/injection, schedule: Q01DX001 (ip), vehicle: steriod suspending solution 91 % of control

Cc1ccc(C(=O)c2sc(Nc3cccc(C(F)(F)F)c3)c(C#N)c2N)c(C)c1
inactive: dose: 100.0 mg/kg/injection, schedule: Q04DX002 (ip), vehicle: saline with Tween-80 95 % of control | dose: 200.0 mg/kg/injection, schedule: Q04DX002 (ip), vehicle: saline with Tween-80 87 % of control | dose: 400.0 mg/kg/injection, schedule: Q04DX002 (ip), vehicle: saline with Tween-80 91 % of control

O=S(=O)(c1ccccc1)C1C2C=CC(O2)C1S(=O)(=O)c1ccccc1 (configuration not stated)
inactive: [11] 91 % of control | [12] 93 % of control | [13] 93 % of control

CCCC/C(CC)=N\N=C(/CC)CCCC
inactive: dose: 50.0 mg/kg/injection, schedule: Q04DX002 (ip), vehicle: saline 91 % of control | [14] 102 % of control | [15] 88 % of control | dose: 400.0 mg/kg/injection, schedule: Q04DX002 (ip), vehicle: saline 96 % of control

OCCC(c1ccc(Cl)cc1)N1CCCCC1 (configuration not stated)
inactive: dose: 100.0 mg/kg/injection, schedule: Q01DX001 (ip), vehicle: other 104 % of control

C#CCOCCC#N
inactive: [14] 101 % of control | [15] 94 % of control

CCOC(=O)c1c(O)c(C(=O)O)cc2ccccc12
inactive: [16] 106 % of control | [8] 108 % of control | [9] 106 % of control | [10] 106 % of control

O=C(On1c(-c2ccccc2)cc2ccccc21)c1ccc([N+](=O)[O-])cc1
inactive: [11] 104 % of control | [12] 111 % of control | [13] 96 % of control

C1CC[N-]CC1.Oc1ccccc1C=NCCN=Cc1ccccc1O.[CH3-].[Rh+2]
inactive: dose: 50.0 mg/kg/injection, schedule: Q01DX009 (ip), vehicle: saline with Tween-80 109 % of control | dose: 100.0 mg/kg/injection, schedule: Q01DX009 (ip), vehicle: saline with Tween-80 115 % of control | dose: 100.0 mg/kg/injection, schedule: Q04DX003 (ip), vehicle: saline with Tween-80 106 % of control | dose: 200.0 mg/kg/injection, schedule: Q01DX009 (ip), vehicle: saline with Tween-80 91 % of control | dose: 200.0 mg/kg/injection, schedule: Q04DX003 (ip), vehicle: saline with Tween-80 117 % of control

C=CC1(O)CCOCC1
inactive: dose: 25.0 mg/kg/injection, schedule: Q01DX001 (ip), vehicle: saline 97 % of control | dose: 50.0 mg/kg/injection, schedule: Q01DX001 (ip), vehicle: saline 97 % of control | [1] 97 % of control

COC(=O)c1ccc[n+](Cc2c(Cl)cccc2Cl)c1
inactive: [7] 95 % of control | dose: 150.0 mg/kg/injection, schedule: Q01DX001 (ip), vehicle: saline 96 % of control

O=NN(CCCl)C(=O)CCCCC(=O)N(CCCl)N=O
active: dose: 25.0 mg/kg/injection, schedule: Q01DX001 (ip), vehicle: carboxymethylcellulose (CMC) 154 % of control | [16] 160 % of control | [8] 165 % of control
inactive: dose: 100.0 mg/kg/injection, schedule: Q01DX001 (ip), vehicle: Klucel (hydroxypropylcellulose) (HPC) 75 % of control | dose: 200.0 mg/kg/injection, schedule: Q01DX001 (ip), vehicle: Klucel (hydroxypropylcellulose) (HPC) 67 % of control | [9] 122 % of control

C=CC(=O)NC1CCCCC1
inactive: dose: 25.0 mg/kg/injection, schedule: Q01DX009 (ip), vehicle: Klucel (hydroxypropylcellulose) (HPC) 97 % of control | dose: 50.0 mg/kg/injection, schedule: Q01DX009 (ip), vehicle: Klucel (hydroxypropylcellulose) (HPC) 95 % of control | dose: 100.0 mg/kg/injection, schedule: Q01DX009 (ip), vehicle: Klucel (hydroxypropylcellulose) (HPC) 102 % of control | [4] 100 % of control | [5] 98 % of control | [6] 100 % of control

CC(CC(=O)N1CCCCC1)CC(=O)N1CCCCC1
inactive: [1] 94 % of control | [2] 104 % of control
